Patent US20230081426A1, “COMPOUNDS AND METHODS FOR KRAS MODULATION AND INDICATIONS THEREFOR” (Plexxikon Inc., priority 2020, published 2023)

Tests used:
[1] = target: T1, G12D-mutant human KRAS (amino acid residues 1-188) (Homo sapiens, UniProt P01116, G12D); experiment: KRAS Binding Disruption Assay (AlphaScreen; biotinylated KRpep-2d analogue or RAF1-RBD), G12D; conditions: KRAS G12D; geometric mean; read-out: KRAS GMean IC50 (uM) MUTATION: G12D
T1 construct: G12D or G12C-mutant human KRAS (amino acid residues 1-188) with FLAG tag; made in house; host or cells: E. coli
Procedure, shortened: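 AlphaScreen readout: signal falls as compound displaces biotinylated KRpep-2d analogue or RAF1-RBD from mutant KRAS. Both partners at 5-20 nM, 1 h binding at 25° C, then 10 μg/mL Anti-Flag acceptor and streptavidin donor beads for 1 h. IC50 by nonlinear regression of % inhibition.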

[2] = target: T2, G12V-mutant human KRAS (amino acid residues 1-188) (Homo sapiens, UniProt P01116, G12V); experiment: KRAS Binding Competition Assay (AlphaScreen; biotinylated KRpep-2d analogue), G12V; conditions: geometric mean, read-out: KRAS GMean IC50 (uM) MUTATION: G12V
T2 construct: G12V-mutant human KRAS (amino acid residues 1-188) with FLAG tag was purified from E. coli; made in house; host or cells: E. coli
Experimental: Compound binding disrupts the interaction of KRpep-2d with KRAS, leading to a decrease in Alpha signal.
All assay components were prepared in 20 mM HEPES (pH 7.5), 100 mM NaCl, 5 mM MgCl2, 0.01% Tween-20, and 0.01% BSA. Biotinylated analogues of KRpep-2d were custom synthesized. The binding competition assays were performed using 10 nM of mutant KRAS and 10 nM of biotinylated KRpep-2d analogue. 19 μL of KRAS protein and 4 μL of biotinylated KRpep-2d were added to the wells of a 384-well plate containing 1 μL of various concentrations of test compound or DMSO vehicle. 16 wells containing KRAS, biotinylated KRpep-2d, and 5% DMSO served as high controls. 16 wells containing KRAS only and 5% DMSO served as low controls. Binding reactions were incubated for 1 hour at 25° C., then Anti-Flag Acceptor and Streptavidin Donor Alpha beads were added at a final concentration of 10 μg/mL for an additional hour at room temperature. Alpha signal was read out on a Perkin Elmer Envision HTS instrument. The percentage inhibition at individual compound concentrations relative to high and low controls was calculated. The data were analyzed by using nonlinear regression to generate IC50 values.

| IC50 [1] [µM] | IC50 [2] [µM] | Compound |
| --- | --- | --- |
| 10 to 100 | 10 to 100 | Cc1cccc2cccc(-c3ccc4c(N5CC6CCC(C5)N6C(=O)CC#N)nc(OC[C@@H]5CCCN5C)nc4c3F)c12 (racemic) [P-0019, 3-((1R,5S)-3-(8-fluoro-7-(8-methylnaphthalen-1-yl)-2-(((RS)-1-methylpyrrolidin-2-yl)methoxy)quinazolin-4-yl)-3,8-diazabicyclo[3.2.1]octan-8-yl)-3-oxopropanenitrile] |
| 0.0001 to 10 | 0.0001 to 10 | CN1CCC[C@H]1COc1nc(N2CC3COCC(C2)N3C(=O)NC2CCOC2)c2ccc(-c3cc(O)cc4ccccc34)c(F)c2n1 (mixture of isomers) [P-0251, rac-7-(8-fluoro-7-(3-hydroxynaphthalen-1-yl)-2-(((R)-1-methylpyrrolidin-2-yl)methoxy)quinazolin-4-yl)-N-(tetrahydrofuran-3-yl)-3-oxa-7,9-diazabicyclo[3.3.1]nonane-9-carboxamide] |
| 10 to 100 | 10 to 100 | CN1CCC[C@H]1COc1nc(N2CC3CCC(C2)N3)c2ccc(N3CC(O)Cc4ccccc43)cc2n1 (mixture of isomers) [P-0256, 1-(4-((1R,5S)-3,8-diazabicyclo[3.2.1]octan-3-yl)-2-(((RS)-1-methylpyrrolidin-2-yl)methoxy)quinazolin-7-yl)-1,2,3,4-tetrahydroquinolin-3-ol] |
| 0.0001 to 10 | 10 to 100 | CN1CCC[C@H]1COc1nc(N2CC3CCC(C2)N3C(=O)CCCN2CCOCC2)c2ccc(-c3cc(O)cc4ccccc34)c(F)c2n1 (racemic) [P-0429, 1-((1R,5S)-3-(8-fluoro-7-(3-hydroxynaphthalen-1-yl)-2-(((RS)-1-methylpyrrolidin-2-yl)methoxy)quinazolin-4-yl)-3,8-diazabicyclo[3.2.1]octan-8-yl)-4-morpholinobutan-1-one] |
| 0.0001 to 10 | 0.0001 to 10 | Oc1cc(-c2ccc3c(N4C[C@H]5CC[C@@H](C4)N5)nc(OCC45CCCN4CCC5)nc3c2Cl)c2ccccc2c1 [P-0003, 4-(4-((1R,5S)-3,8-diazabicyclo[3.2.1]octan-3-yl)-8-chloro-2-((tetrahydro-1H-pyrrolizin-7a(5H)-yl)methoxy)quinazolin-7-yl)naphthalen-2-ol] |
| 0.0001 to 10 | 10 to 100 | CN1CCC[C@H]1CNc1nc(N2C[C@H]3CC[C@@H](C2)N3)c2ccc(-c3cc(O)cc4ccccc34)cc2n1 [P-0016, 4-(4-((1R,5S)-3,8-diazabicyclo[3.2.1]octan-3-yl)-2-((((S)-1-methylpyrrolidin-2-yl)methyl)amino)quinazolin-7-yl)naphthalen-2-ol] |
| 0.0001 to 10 | 100 to 1000 | Cc1ccc2[nH]ncc2c1-c1c(Cl)cc2c(N3C[C@H]4CC[C@@H](C3)N4)nc(OC[C@@H]3CCCN3C)nc2c1F [P-0028, 4-((1R,5S)-3,8-diazabicyclo[3.2.1]octan-3-yl)-6-chloro-8-fluoro-7-(5-methyl-1H-indazol-4-yl)-2-(((S)-1-methylpyrrolidin-2-yl)methoxy)quinazoline] |
| 0.0001 to 10 | 0.0001 to 10 | O=C(NCCN1CCOCC1)N1[C@@H]2CC[C@H]1CN(c1nc(OCC34CCCN3CCC4)nc3cc(-c4cc(O)cc5ccccc45)ccc13)C2 [P-0029, (1R,5S)-3-(7-(3-hydroxynaphthalen-1-yl)-2-((tetrahydro-1H-pyrrolizin-7a(5H)-yl)methoxy)quinazolin-4-yl)-N-(2-morpholinoethyl)-3,8-diazabicyclo[3.2.1]octane-8-carboxamide] |
| 0.0001 to 10 | 10 to 100 | CN1CCC[C@H]1COc1nc(N2CC3CC(C2)N3)c2cc(Cl)c(-c3cc(O)cc4ccccc34)c(F)c2n1 [P-0031, 4-(4-(3,6-diazabicyclo[3.1.1]heptan-3-yl)-6-chloro-8-fluoro-2-(((S)-1-methylpyrrolidin-2-yl)methoxy)quinazolin-7-yl)naphthalen-2-ol] |
| 0.0001 to 10 | 10 to 100 | CN1CCC[C@H]1COc1nc(N2C[C@@H]3C[C@H]2CN3)c2cc(Cl)c(-c3cc(O)cc4ccccc34)c(F)c2n1 [P-0042, 4-(4-((1S,4S)-2,5-diazabicyclo[2.2.1]heptan-2-yl)-6-chloro-8-fluoro-2-(((S)-1-methylpyrrolidin-2-yl)methoxy)quinazolin-7-yl)naphthalen-2-ol] |
| 0.0001 to 10 | 10 to 100 | CN1CCC[C@H]1COc1nc(N2C[C@H]3CC[C@@H](C2)N3)c2cc(Cl)c(-c3cc(O)cc4ccccc34)cc2n1 [P-0043, 4-(4-((1R,5S)-3,8-diazabicyclo[3.2.1]octan-3-yl)-6-chloro-2-(((S)-1-methylpyrrolidin-2-yl)methoxy)quinazolin-7-yl)naphthalen-2-ol] |
| 0.0001 to 10 | – | Cc1ccc2[nH]ncc2c1-c1c(F)cc2c(N3C[C@H]4CC[C@@H](C3)N4)nc(OCC34CCCN3CCC4)nc2c1F [P-0593, 4-((1R,5S)-3,8-diazabicyclo[3.2.1]octan-3-yl)-6,8-difluoro-7-(5-methyl-1H-indazol-4-yl)-2-((tetrahydro-1H-pyrrolizin-7a(5H)-yl)methoxy)quinazoline] |
| 0.0001 to 10 | – | CC(=O)Nc1ccc(Cl)c(-c2c(F)cc3c(N4C[C@H]5CC[C@@H](C4)N5)nc(OCC45CCCN4CCC5)nc3c2F)c1 [P-0594, N-(3-(4-((1R,5S)-3,8-diazabicyclo[3.2.1]octan-3-yl)-6,8-difluoro-2-((tetrahydro-1H-pyrrolizin-7a(5H)-yl)methoxy)quinazolin-7-yl)-4-chlorophenyl)acetamide] |
| 0.0001 to 10 | – | Nc1ccc(Cl)c(-c2c(F)cc3c(N4C[C@H]5CC[C@@H](C4)N5)nc(OCC45CCCN4CCC5)nc3c2F)c1 [P-0595, 3-(4-((1R,5S)-3,8-diazabicyclo[3.2.1]octan-3-yl)-6,8-difluoro-2-((tetrahydro-1H-pyrrolizin-7a(5H)-yl)methoxy)quinazolin-7-yl)-4-chloroaniline] |
| 0.0001 to 10 | – | Cc1ccc(N)cc1-c1c(F)cc2c(N3C[C@H]4CC[C@@H](C3)N4)nc(OCC34CCCN3CCC4)nc2c1F [P-0596, 3-(4-((1R,5S)-3,8-diazabicyclo[3.2.1]octan-3-yl)-6,8-difluoro-2-((tetrahydro-1H-pyrrolizin-7a(5H)-yl)methoxy)quinazolin-7-yl)-4-methylaniline] |
| 0.0001 to 10 | – | CCCc1cccc2[nH]cc(-c3ccc4c(N5C[C@H]6CC[C@@H](C5)N6)nc(OCC56CCCN5CCC6)nc4c3F)c12 [P-0598, 4-((1R,5S)-3,8-diazabicyclo[3.2.1]octan-3-yl)-8-fluoro-7-(4-propyl-1H-indol-3-yl)-2-((tetrahydro-1H-pyrrolizin-7a(5H)-yl)methoxy)quinazoline] |
| 0.0001 to 10 | – | Oc1cc(-c2ccc3c(N4C[C@H]5CC[C@@H](C4)N5)nc(N4CC5(CCNC5)C4)nc3c2F)c2ccccc2c1 [P-0599] |
| 0.0001 to 10 | – | Oc1cc(-c2ccc3c(N4C[C@H]5CC[C@@H](C4)N5)nc(N4CC5(CCCNC5)C4)nc3c2F)c2ccccc2c1 [P-0600, 4-(4-((1R,5S)-3,8-diazabicyclo[3.2.1]octan-3-yl)-8-fluoro-2-(2,6-diazaspiro[3.5]nonan-2-yl)quinazolin-7-yl)naphthalen-2-ol] |
| 0.0001 to 10 | – | CNC1CN(c2nc(N3C[C@H]4CC[C@@H](C3)N4)c3ccc(-c4cc(O)cc5ccccc45)c(F)c3n2)C1 [P-0601, 4-(4-((1R,5S)-3,8-diazabicyclo[3.2.1]octan-3-yl)-8-fluoro-2-(3-(methylamino)azetidin-1-yl)quinazolin-7-yl)naphthalen-2-ol] |
| 0.0001 to 10 | – | Oc1cc(-c2ccc3c(N4C[C@H]5CC[C@@H](C4)N5)nc(N4CC(N5CCC(O)C5)C4)nc3c2F)c2ccccc2c1 (stereo partly drawn) [P-0602, 1-(1-(4-((1R,5S)-3,8-diazabicyclo[3.2.1]octan-3-yl)-8-fluoro-7-(3-hydroxynaphthalen-1-yl)quinazolin-2-yl)azetidin-3-yl)pyrrolidin-3-ol] |
| 10 to 100 | – | Cc1nccc2[nH]cc(-c3ccc4c(N5C[C@H]6CC[C@@H](C5)N6)nc(OCC56CCCN5CCC6)nc4c3F)c12 [P-0605, 4-((1R,5S)-3,8-diazabicyclo[3.2.1]octan-3-yl)-8-fluoro-7-(4-methyl-1H-pyrrolo[3,2-c]pyridin-3-yl)-2-((tetrahydro-1H-pyrrolizin-7a(5H)-yl)methoxy)quinazoline] |
| 0.0001 to 10 | – | OCCCc1cccc2[nH]cc(-c3ccc4c(N5C[C@H]6CC[C@@H](C5)N6)nc(OCC56CCCN5CCC6)nc4c3F)c12 [P-0606, 3-(3-(4-((1R,5S)-3,8-diazabicyclo[3.2.1]octan-3-yl)-8-fluoro-2-((tetrahydro-1H-pyrrolizin-7a(5H)-yl)methoxy)quinazolin-7-yl)-1H-indol-4-yl)propan-1-ol] |
| 0.0001 to 10 | – | Nc1ccc(F)c(-c2c(F)cc3c(N4C[C@H]5CC[C@@H](C4)N5)nc(OCC45CCCN4CCC5)nc3c2F)c1 [P-0608, 3-(4-((1R,5S)-3,8-diazabicyclo[3.2.1]octan-3-yl)-6,8-difluoro-2-((tetrahydro-1H-pyrrolizin-7a(5H)-yl)methoxy)quinazolin-7-yl)-4-fluoroaniline] |
